Experimental data reported in the supplement of paper PMC10790783.

Tested on: MRC5-hT fibroblasts expressing HCMV UL38 (glucose-free medium)
Assay: rescue of cell number (AUC of dose-response) relative to untreated glucose-free control; higher = stronger protection from glucose-starvation-induced cell death
Conditions: glucose: 0 (glucose-free DMEM); 96 h; dose range 0.001-20, 10-point curve µM
Description: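 MRC5-hT fibroblasts stably expressing HCMV UL38 were seeded in 384-well plates, serum-starved for 24 h, switched to glucose-free DMEM, and pin-transferred with a metabolism-focused compound library as 10-point dose curves (1 nM to 20 µM; n=2). Nuclei were counted by Hoechst imaging 96 h after glucose withdrawal.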

| SMILES | rescue of cell number |
| --- | --- |
| NC(=O)c1ccc(N)nc1 [6_Aminonicotinamide] | 32.1% |
| O=C(Oc1ccc([N+](=O)[O-])cc1)N1CCC(C(O)(c2ccc3c(c2)OCO3)c2ccc3c(c2)OCO3)CC1 [JZL184] | 136% |
| CC(=O)c1c(O)c(C)c(O)c(Cc2c(O)c3c(c(C(=O)/C=C/c4ccccc4)c2O)OC(C)(C)C=C3)c1O [Rottlerin] | 24.6% |
| Cc1ccccc1C(C(=O)NC1CCCC1)N(C(=O)Cn1cnc2ccccc21)c1cccc(F)c1 (stereo unspecified) [ML309] | 94.6% |
| Nc1ccn([C@@H]2C=C(CO)[C@@H](O)[C@H]2O)c(=O)n1 [Cyclopentenyl_cytosine] | 84.2% |
| CCCC(CCC)C(=O)O [Valproic_acid] | -34% |
| NC(=O)c1[nH]nc([C@@H]2O[C@H](CO)[C@@H](O)[C@H]2O)c1O [Pyrazofurin] | 26.5% |
| COP(=O)(CCC(N)C(=O)O)Oc1cccc(CC(=O)O)c1 (stereo unspecified) [GGsTop] | -24% |
| CC1=C(/C=C/C(C)=C/C=C/C(C)=C/C(=O)Nc2ccc(O)cc2)C(C)(C)CCC1 [Fenretinide] | 12.2% |
| CN(CCOc1ccc(CC2SC(=O)NC2=O)cc1)c1ccccn1 (stereo unspecified) [Rosiglitazone] | 4.26% |
| O=C(Cc1ccccc1)Nc1nnc(CCSCCc2nnc(NC(=O)Cc3ccccc3)s2)s1 [BPTES] | -24.3% |
| CCOC(=O)c1sc(NC(=O)c2ccco2)c(SC#N)c1C [CBR 5884] | 88% |
| Cn1c2cc([S+](C)[O-])sc2c2cnn(Cc3cccc(N)c3)c(=O)c21 (stereo unspecified) [TEPP_46] | 92.3% |
| Cc1c(O)c(=O)ccn1C [Deferiprone] | 25.4% |
| Cc1ccccc1C(C(=O)NC1CCCCC1)N(C(=O)Cn1ccnc1C)c1cccc(F)c1 (stereo unspecified) [AGI_5198] | 48.3% |
| CN(C/C=C/C#CC(C)(C)C)Cc1cccc2ccccc12 [Terbinafine_HCl] | -15.4% |
| Cc1ccccc1CN1C(=O)C2=C(CCN(Cc3ccccc3)C2)N2CCN=C12 [ONC-201] | 24% |
| COc1cc(/C=C/C(=O)CC(=O)/C=C/c2ccc(O)c(OC)c2)ccc1O [Curcumin] | 32% |
| CCCCC[C@H](O)CC(=O)CCc1ccc(O)c(OC)c1 [[6]-Gingerol] | -29.7% |
| S=c1[nH]cnc2nc[nH]c12 [Mercaptopurine] | -32.1% |
| CC(=O)N[C@H]1[C@@H](O[C@@H]2O[C@H](CC(O)[C@H]3O[C@@H](n4ccc(=O)[nH]c4=O)[C@H](O)[C@@H]3O)[C@H](O)[C@H](O)[C@H]2NC(=O)/C=C/CC(C)C)O[C@H](CO)[C@@H](N)[C@@H]1O (stereo partly specified) [Tunicamycin] | 3.6% |

| SMILES | rescue of cell number |
| --- | --- |
| CN(Cc1ccc(C(C)(C)C)cc1)Cc1cccc2ccccc12 [Butenafine] | 14.4% |
| CCCCCCCCCCCCCCOc1ccc(C(=O)O)o1 [TOFA] | 48.9% |
| CCCCCC[C@H]1C(=O)O[C@H](C)[C@H](NC(=O)c2cccc(NC=O)c2O)C(=O)O[C@@H](C)[C@@H]1OC(=O)CC(C)C [Antimycin_A] | -7.1% |
| O=C(O)CCCCC(CCSCc1ccccc1)SCc1ccccc1 (stereo unspecified) [CPI-613] | 28.9% |
| CC/C=C\C[C@H]1C(=O)CC[C@@H]1CC(=O)O [Jasmonate] | -19.1% |
| S=c1nc[nH]c2nc[nH]c12 [6_Mercaptopurine] | -28.9% |
| CCCCCCCC/C=C\CCCCCCCC(=O)NCCO [Oleylethanolamide] | -13.2% |
| COc1cc(O)c2c(c1)C(=O)c1cc(C)cc(O)c1C2=O [Physcion] | -37.6% |
| Cc1nc(-c2ccc(OCC(C)C)c(C#N)c2)sc1C(=O)O [Febuxostat] | 73.9% |
| OC[C@H]1O[C@H]([S-])[C@H](O)[C@@H](O)[C@@H]1O.[Au+] [Aurothioglucose] | -13.7% |
| O[C@H]1[C@H](O)[C@@H](O)CN2CC[C@H](O)[C@H]12 [Castanospermine] | -30.6% |
| O=C(O)CSc1nnc(Br)n1-c1ccc(C2CC2)c2ccccc12 [Lesinurad] | -28.1% |
| CCC(C)SSc1ncc[nH]1 (stereo unspecified) [PX_12] | -1.42% |
| Cc1cc(/C=C/c2ccc3cc(N(C)C)ccc3[n+]2C)c(C)n1-c1ccccc1 [Pyrvinium_pamoate] | 5.84% |
| Cc1ccc(-c2cc(=O)c3ccc4ccccc4c3o2)cc1 | 155% |
| CNC(=O)c1ccc2cc([C@@]3(O)CCn4cncc43)ccc2c1 [TAK_700] | -25.3% |
| CC(=O)NC[C@H]1CN(c2ccc(N3CCOCC3)c(F)c2)C(=O)O1 [Linezolid] | -6.21% |
| Cc1oncc1C(=O)Nc1ccc(C(F)(F)F)cc1 [Leflunomide] | 9.81% |
| NCCCNCCSP(=O)(O)O [Amifostine] | 110% |
| O=C(O)c1ccc2cc(-c3ccc(O)c(C45CC6CC(CC(C6)C4)C5)c3)ccc2c1 [CD_437] | 25.4% |
| NS(=O)(=O)c1cc(C(=O)O)c(NCc2ccco2)cc1Cl [Furosemide] | -15.9% |

| SMILES | rescue of cell number |
| --- | --- |
| OC[C@H]1O[C@@H](n2cnc3c2N=CNC[C@H]3O)C[C@@H]1O [Pentostatin] | -17.8% |
| C[C@H]1[C@H](OC(=O)CCC(=O)O)O[C@@H]2O[C@@]3(C)CC[C@H]4[C@H](C)CC[C@@H]1[C@@]24OO3 [Artesunate] | 9.86% |
| NOCC[C@H](N)C(=O)O [L_Canaline] | 68% |
| C/C=C(/C)C(=O)O[C@H]1C(C)=C2[C@H]([C@@H]1OC(=O)CCCCCCC)[C@@](C)(OC(C)=O)C[C@H](OC(=O)CCC)[C@@]1(O)[C@H]2OC(=O)[C@@]1(C)O [Thapsigargin] | 25.4% |
| CCOc1ccccc1-n1c(C(C)N2CCN(C(=O)COc3ccc(Cl)cc3)CC2)nc2ccccc2c1=O (stereo unspecified) [Erastin] | 68.6% |
| O=C(Nc1cccc(C(F)(F)F)c1)Nc1cc(S(=O)(=O)NC2CC2)ccc1-c1ccsc1 [AGI_6780] | -23.4% |
| COc1ccccc1OCC(O)CN1CCN(CC(=O)Nc2c(C)cccc2C)CC1 (stereo unspecified) [Ranolazine] | -35.4% |
| Fc1ccc(CNc2ncnc3ccc(F)cc23)cc1 [Spautin_1] | 2.13% |
| CC(c1cc2ccccc2s1)N(O)C(N)=O (stereo unspecified) [Zileuton] | -16.9% |
| O=c1c2ccccc2[se]n1-c1ccccc1 [Ebselen] | -18.8% |
| O=C(/C=C/c1cccnc1)NCCCCC1CCN(C(=O)c2ccccc2)CC1 [FK_866] | 26.9% |
| O=c1oc2ccccc2c(O)c1Cc1c(O)c2ccccc2oc1=O [Dicoumarol] | -17.7% |
| Cc1ccc(C(=O)c2cc(O)c(O)c([N+](=O)[O-])c2)cc1 [Tolcapone] | 37.3% |
| Nc1ncnc2c1C(=O)N(c1ccc([C@H]3CC[C@H](CC(=O)O)CC3)cc1)CCO2 | -20.9% |
| Cc1cnc(Nc2ccc(OCCN3CCCC3)cc2)nc1Nc1cccc(S(=O)(=O)NC(C)(C)C)c1 [Fedratinib] | 40.7% |
| CCOC(=O)[C@@H](N)CCC(=O)N[C@@H](CSCc1ccccc1)C(=O)N[C@@H](C(=O)OCC)c1ccccc1 [Ezatiostat] | -9.45% |
| C/C=C/C/C=C/CCC(=O)[C@H]1O[C@H]1C(N)=O [Cerulenin] | 34.9% |
| Cc1n[nH]c(C)c1Cc1sc2c(c1C(=O)N1C[C@H](O)CO1)c(=O)n(C)c(=O)n2CC(C)C | 78.9% |
| C=C(C)[C@H]1Cc2c(ccc3c2O[C@@H]2COc4cc(OC)c(OC)cc4[C@@H]2C3=O)O1 [Rotenone] | 13.7% |
